The record followed here is the SangsterLogP compilation.

A short description of the series: method code SF-AS, from PMID: 1608988. To be noted: pH 7.3.

In the case of `CCCCCOc1cccc(NC(=O)OCCN2CCOCC2)c1`, the logD (in general, the decadic logarithm of the distribution of all forms, ionised or not, between an organic phase and buffer at a given pH) was 3.58. In turn, `CCCCCCOc1cccc(NC(=O)OCCN2CCOCC2)c1` displayed a logD of 4.19. In turn, `CCCCCCOc1ccccc1NC(=O)OCCN1CCOCC1` came in with a logD of 3.68. To `CCCOc1cccc(NC(=O)OCCN2CCOCC2)c1` belongs 2.5. The molecule `CCCCOc1ccccc1NC(=O)OCCN1CCOCC1` came in with a logD of 2.73. In turn, `CCCCOc1cccc(NC(=O)OCCN2CCOCC2)c1` had a logD of 3.08. Take `CCCCCCCOc1ccccc1NC(=O)OCCN1CCOCC1`: the log distribution coefficient (logD) is 3.99. `CCCCCCCCOc1ccc(NC(=O)OCCN2CCOCC2)cc1` registered a pH-dependent lipophilicity (logD) of 4.8. Molecule `CCOc1ccccc1NC(=O)OCCN1CCOCC1` displayed a pH-dependent lipophilicity (logD) of 1.76.

`CCCCCCCCOc1ccccc1NC(=O)OCCN1CCOCC1` gave a logD of 4.43.

The molecule `CCCCCCOc1ccc(NC(=O)OCCN2CCOCC2)cc1` came in with a log distribution coefficient (logD) of 3.96. To `CCCCCCCOc1cccc(NC(=O)OCCN2CCOCC2)c1` belongs 4.73; to `COc1cccc(NC(=O)OCCN2CCOCC2)c1`, 1.64; to `CCCCCOc1ccccc1NC(=O)OCCN1CCOCC1`, 3.18. To `CCCOc1ccccc1NC(=O)OCCN1CCOCC1` belongs 2.26; to `CCCCCCCOc1ccc(NC(=O)OCCN2CCOCC2)cc1`, 4.41. Consider `CCCOc1ccc(NC(=O)OCCN2CCOCC2)cc1`, for which the logD was found to be 2.24.

In turn, `CCCCOc1ccc(NC(=O)OCCN2CCOCC2)cc1` had a logD of 2.8.

Turning to `CCOc1ccc(NC(=O)OCCN2CCOCC2)cc1`, the logD came to 1.63. On to `COc1ccccc1NC(=O)OCCN1CCOCC1`, for which the logD turned out to be 1.2. To `CCCCCCCCOc1cccc(NC(=O)OCCN2CCOCC2)c1` belongs 4.42; to `CCCCCOc1ccc(NC(=O)OCCN2CCOCC2)cc1`, 3.41.
